What follows are molecules tested against T1, hFP (Homo sapiens, UniProt P43088) (assay: Radioligand Binding Assay (receptor competition binding, hFP membranes)). Conditions: competition against 5 nM (3H) PGF2 on hFP membrane from transfected COS-7 cells; method per Reference Example 1; read-out: IC50 of the Prostaglandin.
T1 construct: expressed in transfected cells; host or cells: COS-7 cells, transient transfection with LipofectAMINE; membranes prepared
Procedure: IC50 of a prostaglandin can be determined relative to PGF2α using the Radioligand Binding Assay. As a control, the IC50 for PGF2α itself should be no lower than 1.0 nM and no higher than 5.0 nM.
In this assay, COS-7 cells are transiently transfected with the hFP recombinant plasmid using LipofectAMINE Reagent. Forty-eight hours later, the tranfected cells are washed with Hank's Balanced Salt Solution (HBSS, without CaCl2, MgCl2, MgSO4, or phenol red). The cells are detached with versene, and HBSS is added. The mixture is centrifuged at 200g for 10 minutes, at 4° C. to pellet the cells. The pellet is resuspended in Phosphate-Buffered Saline-EDTA buffer (PBS; 1 mM EDTA; pH 7.4; 4° C.). The cells are disrupted by nitrogen cavitation (Parr model 4639), at 800 psi, for 15 minutes at 4° C. The mixture is centrifuged at 1000 g for 10 minutes at 4° C. The supernatant is centrifuged at 100,000 g for 60 minutes at 4° C. The pellet is resuspended to 1 mg protein/mL TME buffer (50 mM Tris; 10 mM MgCl2; 1 mM EDTA; pH 6.0; 4° C.) based on protein levels measured using the Pierce BCA Protein Assay kit. The homogenate is mixed for 10 seconds using a Kinematica POLYTRON® (available from KINEMATICA AG, Luzernerstrasse147A CH-6014 Littau, Switzerland). The membrane preparations are then stored at −80° C., until thawed for assay use.
The receptor competition binding assays are developed in a 96 well format. Each well contains […] of hFP membrane, 5 nM (3H) PGF2, and the various competing compounds in a total volume of […]. The plates are incubated at 23° C. for 1 hour. The incubation is terminated by rapid filtration using the Packard Filtermate 196 harvester through Packard UNIFILTER® GF/B filters (available from Packard Instrument Co., Inc. of Downers Grove Ill.) pre-wetted with TME buffer. The filter is washed four times with TME buffer. […] The plates are read on a Packard TOPCOUNT® Microplate Scintillation Counter (also available from Packard Instrument Co., Inc.)

T1 sequence (P43088 whole entry): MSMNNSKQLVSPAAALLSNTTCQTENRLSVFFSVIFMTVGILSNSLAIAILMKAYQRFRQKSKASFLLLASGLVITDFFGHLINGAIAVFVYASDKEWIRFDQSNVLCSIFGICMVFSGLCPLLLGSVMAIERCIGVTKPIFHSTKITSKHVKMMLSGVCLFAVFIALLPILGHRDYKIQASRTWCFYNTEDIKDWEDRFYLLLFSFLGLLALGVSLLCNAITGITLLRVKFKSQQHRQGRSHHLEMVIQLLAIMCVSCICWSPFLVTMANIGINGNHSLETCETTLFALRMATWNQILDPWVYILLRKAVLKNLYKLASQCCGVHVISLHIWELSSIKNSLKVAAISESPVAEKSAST

Row | IC50 [nM] | SMILES
1 | 162 | O=C(O)CCCCCC[C@H]1[C@@H](O)C/C(=N/O)[C@@H]1CC[C@@H](O)CSc1ccccc1
2 | 15 | CCCCC[C@H](O)/C=C/[C@H]1/C(=N\O)C[C@H](O)[C@@H]1C/C=C\CCCC(=O)O [Example 1-1]
3 | 150 | CCCCC[C@H](O)/C=C/[C@H]1C(NO)C[C@H](O)[C@@H]1C/C=C\CCCC(=O)O (stereo partly drawn) [Example 1-2]
